Source: patent publication US10450297B2, “Sulfonyl amide derivatives for the treatment of abnormal cell growth” (Pfizer, Inc., priority 2007, dated 2019)

Biological target: FAK kinase (catalytic construct FAK(410-689)) (Homo sapiens (Human), UniProt Q05397)
Test: FAKcd kinase ELISA (inhibition of poly-glu-tyr phosphorylation by FAK(410-689))
Type: biochemical
Conditions: 50 μM final ATP
Procedure: A. In-Vitro Activity of FAK:
The assay protocol has three parts:
3. […] 4. […] 5. […] 6. […] 7. […] 9. […] 10. […] 12. […] 13. […] 14. Aliquot the FAKcd protein and store frozen at −80° C. II. FAK Activation 1. […] At t120 (t=120 minutes), add 10 μl of 150 mM ATP. […] Add 180 μl aliquots of the desalted material to NiNTA spin column and incubate on spin column 4. […] FAKcd Kinase ELISA 1. Coat 96-well Nunc MaxiSorp plates with poly-glu-tyr (pGT) at […]: Prepare 10 μg/ml of pGT in PBS and aliquot 100 μl/well. Incubate the plates at 37° C. overnight, aspirate the supernatant, wash the plates 3 times with Wash Buffer, and flick to dry before storing at 4° C. 2. Prepare compound stock solutions of 2.5 mM in 100% DMSO. The stocks are subsequently diluted to 60× of the final concentration in 100% DMSO, and diluted 1:5 in Kinase Phosphorylation Buffer. 3. […] Add 80 μl to each well for a final ATP concentration of 50 μM. 4. […] 5. Dilute on ice, FAKcd protein to 1:1000 in Kinase Phosphorylation Buffer. Dispense 30 μl per well. 6. Note: Linearity and the appropriate dilution must be pre-determined for each batch of protein. The enzyme concentration selected should be such that quantitation of the assay signal will be approximately 0.8-1.0 at OD450, and in the linear range of the reaction rate. 7. Prepare both a No ATP control (noise) and a No Compound Control (Signal): 8. (Noise) One blank row of wells receives 10 μl of 1:5 diluted compounds in DMSO, 80 μl of Phosphorylation buffer (minus ATP), and 30 μl FAKcd solution. 9. […] 10. Incubate reaction at room temperature for 15 minutes with gentle shaking on a plate shaker. 11. Terminate the reaction by aspirating off the reaction mixture and washing 3 times with wash buffer. 12. Dilute phospho-tyrosine HRP-conjugated (pY20HRP) antibody to 0.250 μg/ml (1:1000 of Stock) in blocking buffer. Dispense 100 μl per well, and incubate with shaking for 30 minutes at 25°. 13. Aspirate the supernatant and wash the plate 3 times with wash buffer. 14. Add 100 μl per well of room temperature TMB solution to initiate color development. Color development is terminated after approximately 15-30 sec. by the addition of 100 μl of 0.09M H2SO4 per well. 15. The signal is quantitated by measurement of absorbance at 450 nm on the BioRad ricroplate reader or a microplate reader capable of reading at OD450. 16. Inhibition of tyrosine kinase activity would result in a reduced absorbance signal. […] The values are reported as IC50s, μM concentration. FAK Inducible cell-based ELISA: Final Protocol Materials: […]

FAK kinase (catalytic construct FAK(410-689)), sequence (Q05397 410-689): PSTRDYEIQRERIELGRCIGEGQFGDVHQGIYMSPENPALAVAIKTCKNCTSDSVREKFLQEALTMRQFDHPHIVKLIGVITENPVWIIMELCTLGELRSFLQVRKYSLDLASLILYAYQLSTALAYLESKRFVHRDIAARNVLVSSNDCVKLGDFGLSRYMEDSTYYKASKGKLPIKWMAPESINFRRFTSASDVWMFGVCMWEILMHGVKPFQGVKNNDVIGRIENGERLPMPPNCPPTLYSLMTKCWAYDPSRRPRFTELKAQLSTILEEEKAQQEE

Question: With COc1ccc(Nc2ncc(C(F)(F)F)c(NCc3cccnc3N(C)S(C)(=O)=O)n2)cc1OC [Compound 282, N-{3-[({2-[(3,4-dimethoxyphenyl)amino]-5-(trifluoromethyl)pyrimidin-4-yl}amino)methyl]pyridin-2-yl}-N-methylmethane-sulfonamide] as the compound, how does the IC50 read?
Answer: 0.6 nM

Question: Which IC50 does the source give for Cc1cc(C(N)=O)ccc1Nc1ncc(C(F)(F)F)c(NCc2nccnc2N(C)S(C)(=O)=O)n1 [Compound 345, 3-methyl-4-({4-[({3-[methyl(methylsulfonyl)amino]pyrazin-2-yl}methyl)amino]-5-(trifluoromethyl)pyrimidin-2-yl}amino)benzamide] here?
Answer: 0.981 nM

Question: How did the IC50 turn out when CC(=O)NCCNC(=O)c1cccc(Nc2ncc(C(F)(F)F)c(NCc3cccnc3N(C)S(C)(=O)=O)n2)c1 [Compound 167, N-[2-(acetylamino)ethyl]-3-({4-[({2-[methyl(methylsulfonyl)amino]pyridin-3-yl}methyl)amino]-5-(trifluoromethyl)pyrimidin-2-yl}amino)benzamide] was run?
Answer: 3.44 nM

Question: With CN(c1ncccc1CNc1nc(Nc2ccc(C(=O)O)cc2)ncc1C(F)(F)F)S(C)(=O)=O [Compound 42, 4-({4-[({2-[methyl(methylsulfonyl)amino]pyridin-3-yl}methyl)amino]-5-(trifluoromethyl)pyrimidin-2-yl}amino)benzoic acid] as the compound, how does the IC50 read?
Answer: 188 nM

Question: How did the IC50 turn out when CN(c1ncccc1CNc1nc(Nc2cccc(C(=O)NC3CCC3)c2)ncc1C(F)(F)F)S(C)(=O)=O [Compound 185, N-cyclobutyl-3-({4-[({2-[methyl(methylsulfonyl)amino]pyridin-3-yl}methyl)amino]-5-(trifluoromethyl)pyrimidin-2-yl}amino)benzamide] was run?
Answer: 2.17 nM

Question: Which IC50 does the source give for CN(c1ncccc1CNc1nc(Nc2ccc(C(=O)NCCCO)cc2)ncc1C(F)(F)F)S(C)(=O)=O [Compound 255, N-(3-hydroxypropyl)-4-({4-[({2-[methyl(methylsulfonyl)amino]pyridin-3-yl}methyl)amino]-5-(trifluoromethyl)pyrimidin-2-yl}amino)benzamide] here?
Answer: 0.82 nM

Question: Which IC50 does the source give for CN(c1ncccc1CNc1nc(Nc2ccc(C(=O)NC3CCC3)cc2)ncc1C(F)(F)F)S(C)(=O)=O [Compound 240, N-cyclobutyl-4-({4-[({2-[methyl(methylsulfonyl)amino]pyridin-3-yl}methyl)amino]-5-(trifluoromethyl)pyrimidin-2-yl}amino)benzamide] here?
Answer: 0.69 nM

Question: For CN(c1ncccc1CNc1nc(Nc2ccc(CC(=O)O)cc2)ncc1C(F)(F)F)S(C)(=O)=O [Compound 105, [4-({4-[({2-[methyl(methylsulfonyl)amino]pyridin-3-yl}methyl)amino]-5-(trifluoromethyl)pyrimidin-2-yl}arnino)phenyl]acetic acid], which IC50 is on record?
Answer: 0.94 nM

Question: CC(C)C(CO)NC(=O)c1ccc(Nc2ncc(C(F)(F)F)c(NCc3cccnc3N(C)S(C)(=O)=O)n2)cc1 (stereo not drawn) [Compound 241, N-[1-(hydroxymethyl)-2-methylpropyl]-4-({4-[{{2-[methyl(methylsulfonyl)amino]pyridin-3-yl}methyl)amino]-5-(trifluoromethyl)pyrimidin-2-yl}amino)benzamide] was tested. Which IC50 did it give?
Answer: 0.6 nM

Question: Which IC50 does the source give for CN(c1ncccc1CNc1nc(Nc2ccc(C3COC(C)(C)O3)cc2)ncc1C(F)(F)F)S(C)(=O)=O (stereo not drawn) [Compound 410, N-[3-({[2-{[4-(2,2-dimethyl-1,3-dioxolan-4-yl)phenyl]amino}-5-(trifluoromethyl)pyrimidin-4-yl)amino}methyl)pyridin-2-yl]-N-methylmethane-sulfonamide] here?
Answer: 1.19 nM

Question: For CN(c1cccc(CNc2nc(Nc3ccc(S(N)(=O)=O)cc3)ncc2Br)c1)S(C)(=O)=O [Compound 34, 4-{[5-bromo-4-({3-[methyl(methylsulfonyl)amino]benzyl}amino)pyrimidin-2-yl)amino}benzenesulfonamide], which IC50 is on record?
Answer: 15.6 nM

Question: With CN(c1ncccc1CNc1nc(Nc2ccc(N3CCCS3(=O)=O)cc2)ncc1C(F)(F)F)S(C)(=O)=O [Compound 27, N-[3-({[2-{[4-(1,1-dioxidoisothiazolidin-2-yl)phenyl]amino}-5-(trifluoromethyl)pyrimidin-4-yl]amino}methyl)pyridin-2-yl]-N-methylmethane-sulfonamide] as the compound, how does the IC50 read?
Answer: 1.38 nM
